# Results taken from patent publication US8952034B2, “Fused heterocyclic compounds as ion channel modulators” (Gilead Sciences, Inc., priority 2009, dated 2015).
# Biological target: wild-type human cardiac sodium channel, hNav1.5 (Homo sapiens, UniProt Q14524)
# Assay: Late INa screening assay (automated whole cell patch clamp, PatchXpress)
# Type: cell-based
# Details: compound at 1 μM; HEK293 cells expressing hNav1.5; late INa generated with 10 μM Tefluthrin (or 50 nM ATX II); read-out: LateINa_1 uM (percent block of late INa)
# Outline: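 Late sodium current through wild-type human hNav1.5 stably expressed in HEK293 cells (no beta subunits) was recorded by automated whole-cell patch clamp on a PatchXpress 7000A at 24-27° C. Late INa was induced with 10 μM Tefluthrin or 50 nM ATX II. Cells were stepped from −120 mV to −20 mV for 250 ms at 0.1 Hz, and percent block was normalized to current in Na-free extracellular solution.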
# Sequence of wild-type human cardiac sodium channel, hNav1.5 (Q14524 whole entry): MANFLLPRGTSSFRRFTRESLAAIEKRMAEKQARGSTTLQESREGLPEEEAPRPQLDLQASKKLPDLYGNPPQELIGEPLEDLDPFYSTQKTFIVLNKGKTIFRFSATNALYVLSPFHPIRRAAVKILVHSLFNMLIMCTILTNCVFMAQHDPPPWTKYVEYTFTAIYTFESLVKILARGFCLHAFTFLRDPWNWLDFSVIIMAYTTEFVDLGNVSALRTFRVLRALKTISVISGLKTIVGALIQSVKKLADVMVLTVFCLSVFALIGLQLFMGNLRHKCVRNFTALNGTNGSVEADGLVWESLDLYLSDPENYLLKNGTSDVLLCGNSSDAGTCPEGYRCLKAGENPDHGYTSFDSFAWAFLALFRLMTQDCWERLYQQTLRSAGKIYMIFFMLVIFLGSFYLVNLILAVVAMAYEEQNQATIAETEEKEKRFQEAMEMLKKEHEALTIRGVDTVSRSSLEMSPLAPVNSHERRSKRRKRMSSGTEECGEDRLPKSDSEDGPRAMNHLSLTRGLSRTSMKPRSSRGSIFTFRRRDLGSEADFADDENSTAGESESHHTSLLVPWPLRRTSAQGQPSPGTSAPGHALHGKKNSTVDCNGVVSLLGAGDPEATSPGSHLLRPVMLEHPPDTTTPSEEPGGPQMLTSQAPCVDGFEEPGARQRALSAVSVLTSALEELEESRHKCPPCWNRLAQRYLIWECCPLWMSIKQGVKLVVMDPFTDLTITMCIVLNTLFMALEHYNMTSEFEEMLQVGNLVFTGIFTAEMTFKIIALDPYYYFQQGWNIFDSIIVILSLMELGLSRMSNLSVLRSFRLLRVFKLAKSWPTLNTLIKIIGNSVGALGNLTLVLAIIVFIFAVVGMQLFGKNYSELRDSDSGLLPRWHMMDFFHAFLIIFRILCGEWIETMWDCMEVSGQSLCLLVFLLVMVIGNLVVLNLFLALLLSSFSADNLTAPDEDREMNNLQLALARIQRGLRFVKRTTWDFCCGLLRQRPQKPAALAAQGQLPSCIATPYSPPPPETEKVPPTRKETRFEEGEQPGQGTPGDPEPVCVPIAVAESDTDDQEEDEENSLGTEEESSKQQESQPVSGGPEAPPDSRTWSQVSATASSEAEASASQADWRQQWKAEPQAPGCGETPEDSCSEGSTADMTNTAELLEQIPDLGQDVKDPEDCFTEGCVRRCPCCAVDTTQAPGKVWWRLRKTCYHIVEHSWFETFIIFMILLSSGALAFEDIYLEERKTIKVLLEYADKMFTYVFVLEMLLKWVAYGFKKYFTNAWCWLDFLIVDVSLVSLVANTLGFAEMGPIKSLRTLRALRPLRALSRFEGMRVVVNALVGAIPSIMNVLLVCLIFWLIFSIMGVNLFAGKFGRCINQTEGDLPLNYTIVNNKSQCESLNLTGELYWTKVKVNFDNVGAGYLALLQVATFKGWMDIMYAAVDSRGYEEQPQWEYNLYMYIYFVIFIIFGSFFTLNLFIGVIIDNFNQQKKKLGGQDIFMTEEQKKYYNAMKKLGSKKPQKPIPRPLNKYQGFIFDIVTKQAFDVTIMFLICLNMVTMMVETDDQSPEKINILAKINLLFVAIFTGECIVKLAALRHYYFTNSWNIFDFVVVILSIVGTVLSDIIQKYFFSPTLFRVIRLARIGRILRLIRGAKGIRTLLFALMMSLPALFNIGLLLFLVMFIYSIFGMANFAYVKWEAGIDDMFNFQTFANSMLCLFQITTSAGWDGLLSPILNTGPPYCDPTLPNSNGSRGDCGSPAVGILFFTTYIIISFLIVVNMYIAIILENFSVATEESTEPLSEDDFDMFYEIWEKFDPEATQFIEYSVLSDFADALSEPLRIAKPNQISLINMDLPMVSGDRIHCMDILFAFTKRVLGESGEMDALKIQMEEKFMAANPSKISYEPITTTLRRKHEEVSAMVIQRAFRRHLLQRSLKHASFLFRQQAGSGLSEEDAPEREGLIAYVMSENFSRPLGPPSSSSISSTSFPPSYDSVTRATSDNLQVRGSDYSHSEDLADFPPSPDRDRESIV
row,SMILES,inhibition at 1 µM
1,"FC(F)(F)c1ncc2ccc(-c3ccccc3)cn12 [BHN-194, 6-phenyl-3-(trifluoromethyl)imidazo[1,5-a]pyridine]",22.2%
2,"Cc1ccc(COCc2nnc3ccc(-c4ccc(OC(F)(F)F)cc4)cn23)nc1 [BHN-252, 3-{[(5-methylpyridin-2-yl)methoxy]methyl}-6-[4-(trifluoromethoxy)phenyl][1,2,4]triazolo[4,3-a]pyridine]",20.6%
3,"OC(C1CC1)C(F)(F)c1nnc2ccc(-c3ccc(OC(F)(F)F)cc3)cn12 (stereo not drawn) [BHN-166, 1-cyclopropyl-2,2-difluoro-2-{6-[4-(trifluoromethoxy)phenyl][1,2,4]triazolo[4,3-a]pyridin-3-yl}ethanol]",29.5%
4,"Fc1ccc(COCc2nnc3ccc(-c4ccc(OC(F)(F)F)cc4)cn23)c(F)c1 [BHN-240, 3-{[(2,4-difluorobenzyl)oxy]methyl}-6-[4-(trifluoromethoxy)phenyl][1,2,4]triazolo[4,3-a]pyridine]",83.4%
5,"FC(F)(F)c1ncc2ccc(-c3nc4ccccc4o3)cn12 [BHN-196, 2-[3-(trifluoromethyl)imidazo[1,5-a]pyridin-6-yl]-1,3-benzoxazole]",26.8%
6,"COc1ccc(N2CCN(CCOC(F)(F)c3nnc4ccc(-c5ccc(OC(F)(F)F)cc5)cn34)CC2)cc1 [BHN-264, 3-(difluoro{2-[4-(4-methoxyphenyl)piperazin-1-yl]ethoxy}methyl)-6-[4-(trifluoromethoxy)phenyl][1,2,4]triazolo[4,3-a]pyridine]",54.3%
7,"FC(F)(F)c1nnc2ccc(C#Cc3ccccc3)cn12 [BHN-163, 6-(phenylethynyl)-3-(trifluoromethyl)[1,2,4]triazolo[4,3-a]pyridine]",57.3%
8,"COCC(F)(F)c1nnc2ccc(-c3ccc(Oc4ccc(F)cc4)cc3)cn12 [BHN-138, 3-(1,1-difluoro-2-methoxyethyl)-6-[4-(4-fluorophenoxy)phenyl][1,2,4]triazolo[4,3-a]pyridine]",42.8%
9,"FC(F)(F)Oc1ccc(-c2ccc3nnc(C(F)(F)F)n3c2)cc1Cl [BHN-164, 6-[3-chloro-4-(trifluoromethoxy)phenyl]-3-(trifluoromethyl)[1,2,4]triazolo[4,3-a]pyridine]",50.7%
10,"FC(F)(F)COCc1nnc2ccc(-c3ccc(OC(F)(F)F)cc3)cn12 [BHN-129, 3-[(2,2,2-trifluoroethoxy)methyl]-6-[4-(trifluoromethoxy)phenyl][1,2,4]triazolo[4,3-a]pyridine]",48.4%
11,"COCC(F)(F)c1nnc2ccc(C#Cc3ccc(OC(F)(F)F)cc3)cn12 [BHN-309, 3-(1,1-difluoro-2-methoxyethyl)-6-{[4-(trifluoromethoxy)phenyl]ethynyl}[1,2,4]triazolo[4,3-a]pyridine]",25.2%
12,"COc1nnc2ccc(-c3ccc(OC(F)(F)F)cc3)cn12 [BHN-185, 3-methoxy-6-[4-(trifluoromethoxy)phenyl][1,2,4]triazolo[4,3-a]pyridine]",29.1%
13,"FC(F)(F)Oc1ccc(-c2ccc3nnc(C(F)(F)OCc4coc(-c5ccccc5)n4)n3c2)cc1 [BHN-299, 3-{difluoro[(2-phenyl-1,3-oxazol-4-yl)methoxy]methyl}-6-[4-(trifluoromethoxy)phenyl][1,2,4]triazolo[4,3-a]pyridine]",51.1%
14,"Fc1cc(OC(F)(F)F)ccc1-c1ccc2nnc(C(F)(F)F)n2c1 [BHN-145, 6-[2-fluoro-4-(trifluoromethoxy)phenyl]-3-(trifluoromethyl)[1,2,4]triazolo[4,3-a]pyridine]",55.3%
15,"Cc1nccn1-c1ccccc1COC(F)(F)c1nnc2ccc(-c3ccc(OC(F)(F)F)cc3)cn12 [BHN-312, 3-(difluoro{[2-(2-methyl-1H-imidazol-1-yl)benzyl]oxy}methyl)-6-[4-(trifluoromethoxy)phenyl][1,2,4]triazolo[4,3-a]pyridine]",51.4%
